Measurements as given in ChEMBL document CHEMBL1201862, “PubChem BioAssay data set” (2004).
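Protocol summary: plate cells (96-well), add compound at 5 concentrations, incubate 48 h, interpolate endpoints linearly. Here, GI50 denotes the concentration required for 50% inhibition of growth.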 Activity calls are given as the source filed them. Rule as the data show it: active = GI50 up to about 1.1 µM and inactive = higher.

Columns and labels:
Assay in all cases: NCI anticancer screen, dose series, 48 h
786-0 = system: 786-0
A549 = system: A549
CAKI-1 = system: CAKI-1
CCRF-CEM = system: CCRF-CEM
COLO 205 = system: COLO 205
DLD-1 = system: DLD-1
DMS-273 = system: DMS-273
DU-145 = system: DU-145
EKVX = system: EKVX
HCT-116 = system: HCT-116
HCT-15 = system: HCT-15
HL-60 = system: HL-60
HOP-18 = system: HOP-18
HOP-62 = system: HOP-62
HOP-92 = system: HOP-92
HT-29 = system: HT-29
IGROV-1 = system: IGROV-1
K562 = system: K562
KM-20L2 = system: KM-20L2
KM12 = system: KM12
LXFL 529 = system: LXFL 529
M14 = system: M14
MCF7 = system: MCF7
MDA-MB-231 = system: MDA-MB-231
MDA-MB-435 = system: MDA-MB-435
MDA-N = system: MDA-N
MOLT-4 = system: MOLT-4
Malme-3M = system: Malme-3M
NCI-H226 = system: NCI-H226
NCI-H23 = system: NCI-H23
NCI-H460 = system: NCI-H460
NCI-H522 = system: NCI-H522
NCI/ADR-RES = system: NCI/ADR-RES
OVCAR-3 = system: OVCAR-3
OVCAR-5 = system: OVCAR-5
OVCAR-8 = system: OVCAR-8
PC-3 = system: PC-3
RPMI-8226 = system: RPMI-8226
RXF 393 = system: RXF 393
RXF 631 = system: RXF 631
SF-268 = system: SF-268
SF-295 = system: SF-295
SF-539 = system: SF-539
SK-MEL-28 = system: SK-MEL-28
SK-MEL-2 = system: SK-MEL-2
SK-MEL-5 = system: SK-MEL-5
SK-OV-3 = system: SK-OV-3
SN12C = system: SN12C
SNB-19 = system: SNB-19
SNB-78 = system: SNB-78
SW-620 = system: SW-620
TK-10 = system: TK-10
U-251 = system: U-251
UACC-257 = system: UACC-257
UACC-62 = system: UACC-62
UO-31 = system: UO-31
XF498 = system: XF498
A498 = system: A498
ACHN = system: ACHN
DMS-114 = system: DMS-114
HCC 2998 = system: HCC 2998
LOX IMVI = system: LOX IMVI
M19-MEL = system: M19-MEL
OVCAR-4 = system: OVCAR-4
SNB-75 = system: SNB-75

COC1=C2C[C@@H](C)C[C@@H](OC)[C@@H](O)[C@H](C)/C=C(\C)[C@@H](OC(N)=O)[C@H](OC)/C=C\C=C(/C)C(=O)NC(=CC1=O)C2=O
GI50 (786-0): 0.0762 µM (active)
GI50 (A549): 5.78 µM (inactive)
GI50 (CAKI-1): 1.77 µM (inactive)
GI50 (CCRF-CEM): 0.0282 µM (active)
GI50 (COLO 205): 0.0116 µM (active)
GI50 (DLD-1): 0.0679 µM (active)
GI50 (DMS-273): 0.117 µM (active)
GI50 (DU-145): 0.106 µM (active)
GI50 (EKVX): 6.56 µM (inactive)
GI50 (HCT-116): 0.0419 µM (active)
GI50 (HCT-15): 0.265 µM
GI50 (HL-60): 0.0132 µM (active)
GI50 (HOP-18): 0.159 µM (active)
GI50 (HOP-62): 3.38 µM (inactive)
GI50 (HOP-92): 0.112 µM (active)
GI50 (HT-29): 0.0143 µM (active)
GI50 (IGROV-1): 0.29 µM (active)
GI50 (K562): 0.0115 µM (active)
GI50 (KM-20L2): 0.0266 µM (active)
GI50 (KM12): 0.455 µM (active)
GI50 (LXFL 529): 0.0267 µM (active)
GI50 (M14): 0.106 µM (active)
GI50 (MCF7): 0.0198 µM (active)
GI50 (MDA-MB-231): 0.0421 µM (active)
GI50 (MDA-MB-435): 0.0309 µM (active)
GI50 (MDA-N): 0.0216 µM (active)
GI50 (MOLT-4): 0.0199 µM (active)
GI50 (Malme-3M): 0.044 µM (active)
GI50 (NCI-H226): 3.56 µM (inactive)
GI50 (NCI-H23): 0.0309 µM (active)
GI50 (NCI-H460): 1.49 µM (inactive)
GI50 (NCI-H522): 0.036 µM (active)
GI50 (NCI/ADR-RES): 10.1 µM (inactive)
GI50 (OVCAR-3): 0.213 µM (active)
GI50 (OVCAR-5): 6.87 µM (inactive)
GI50 (OVCAR-8): 0.0614 µM (active)
GI50 (PC-3): 0.122 µM (active)
GI50 (RPMI-8226): 0.138 µM (active)
GI50 (RXF 393): 0.0818 µM (active)
GI50 (RXF 631): 0.71 µM (active)
GI50 (SF-268): 1.01 µM (active)
GI50 (SF-295): 9.38 µM (inactive)
GI50 (SF-539): 0.132 µM (active)
GI50 (SK-MEL-28): 0.113 µM (active)
GI50 (SK-MEL-2): 0.396 µM (active)
GI50 (SK-MEL-5): 0.678 µM (active)
GI50 (SK-OV-3): 1.04 µM (active)
GI50 (SN12C): 0.0405 µM (active)
GI50 (SNB-19): 10.2 µM (inactive)
GI50 (SNB-78): 1.04 µM (active)
GI50 (SW-620): 0.0127 µM (active)
GI50 (TK-10): 0.118 µM (active)
GI50 (U-251): 2.93 µM (inactive)
GI50 (UACC-257): 0.0769 µM (active)
GI50 (UACC-62): 0.122 µM (active)
GI50 (UO-31): 0.189 µM (active)
GI50 (XF498): 0.0787 µM (active)

C1=CC=C2NCCC/N=C3/C=CC=CC=C3NCCC/N=C\2C=C1
GI50 (786-0): > 100 µM (inactive)
GI50 (A498): > 100 µM (inactive)
GI50 (A549): > 100 µM (inactive)
GI50 (ACHN): > 100 µM (inactive)
GI50 (CCRF-CEM): > 100 µM (inactive)
GI50 (COLO 205): > 100 µM (inactive)
GI50 (DLD-1): > 100 µM (inactive)
GI50 (DMS-114): > 100 µM (inactive)
GI50 (DMS-273): > 100 µM (inactive)
GI50 (EKVX): > 100 µM (inactive)
GI50 (HCC 2998): > 100 µM (inactive)
GI50 (HCT-116): > 100 µM (inactive)
GI50 (HCT-15): > 100 µM
GI50 (HL-60): > 100 µM (inactive)
GI50 (HOP-62): > 100 µM (inactive)
GI50 (HOP-92): > 100 µM (inactive)
GI50 (HT-29): > 100 µM (inactive)
GI50 (IGROV-1): > 100 µM (inactive)
GI50 (K562): > 100 µM (inactive)
GI50 (KM-20L2): > 100 µM (inactive)
GI50 (KM12): > 100 µM (inactive)
GI50 (LOX IMVI): > 100 µM (inactive)
GI50 (LXFL 529): > 100 µM (inactive)
GI50 (M14): > 100 µM (inactive)
GI50 (M19-MEL): > 100 µM (inactive)
GI50 (MOLT-4): > 100 µM (inactive)
GI50 (NCI-H226): > 100 µM (inactive)
GI50 (NCI-H460): > 100 µM (inactive)
GI50 (OVCAR-3): > 100 µM (inactive)
GI50 (OVCAR-4): > 100 µM (inactive)
GI50 (OVCAR-5): > 100 µM (inactive)
GI50 (OVCAR-8): > 100 µM (inactive)
GI50 (RPMI-8226): > 100 µM (inactive)
GI50 (RXF 631): > 100 µM (inactive)
GI50 (SF-268): > 100 µM (inactive)
GI50 (SF-295): > 100 µM (inactive)
GI50 (SF-539): > 100 µM (inactive)
GI50 (SK-MEL-28): > 100 µM (inactive)
GI50 (SK-MEL-2): > 100 µM (inactive)
GI50 (SK-MEL-5): > 100 µM (inactive)
GI50 (SK-OV-3): > 100 µM (inactive)
GI50 (SN12C): > 100 µM (inactive)
GI50 (SNB-19): > 100 µM (inactive)
GI50 (SNB-75): > 100 µM (inactive)
GI50 (SNB-78): > 100 µM (inactive)
GI50 (SW-620): > 100 µM (inactive)
GI50 (TK-10): > 100 µM (inactive)
GI50 (U-251): > 100 µM (inactive)
GI50 (UACC-62): > 100 µM (inactive)
GI50 (UO-31): > 100 µM (inactive)
GI50 (XF498): > 100 µM (inactive)
